According to ChEMBL document CHEMBL3507680, “University of Dundee, Gates Library screen for HepG2 cell viability”:

Assay: Human HepG2 cell viability assay in 384 well format
Format: toxicity, cell-based
Design: dose 125 nL, time 70.5 hour; concentration not given beside the values
Settings: HepG2 cells, read-out: Inhibition

SMILES | cytotoxicity at 70.5 h
CCCc1c(C(=O)N2CCN(c3ncccn3)CC2)cnn1C | -10.6%
Cc1cccc(CS(=O)(=O)Cc2ccn(C)c(=O)c2)c1 | -12.8%
COC(=O)C(NC(=O)c1ccc(NC2CC2)nc1)c1ccccc1 (stereo not given) | -5.38%
N#Cc1ccc(Cn2cncn2)c(F)c1 | -12.7%
COc1ccc(CNCCc2cccc(C(N)=O)c2)cc1O | -6.24%
O=C(NC1CCc2nccn2C1)c1ccc(NC2CC2)nc1 (stereo not given) | -12%
CC(CCc1cccn1C)NC(=O)Nc1cccn(C)c1=O (stereo not given) | -10.4%
Cc1ccc(S(=O)(=O)N(C)Cc2cnccn2)cc1N(C)C | -1.07%
O=C(CNc1nc(C2CC2)ns1)N1CCc2sccc2C1 | -10.8%
O=C(c1ccc[nH]1)N1CCN(C(c2ccccc2)C(F)(F)F)CC1 (stereo not given) | -7.16%
O=C(Cc1ccon1)N(CCC(F)(F)F)C1CCCC1 | -3.19%
O=C(Cc1cccc(F)c1F)NS(=O)(=O)c1cncc(Cl)c1 | -2.5%
CC(C)C(C)NC(=O)Nc1cccn(C)c1=O (stereo not given) | 4.29%
Cc1cc(F)ccc1N1CCCC(NS(=O)(=O)CCCF)C1=O (stereo not given) | -6.3%
CCS(=O)(=O)NC1CCCN(c2cc(C)ccc2F)C1=O (stereo not given) | -1.61%
COc1ccccc1CC(C)N(C)S(C)(=O)=O (stereo not given) | -6.61%
CNS(=O)(=O)Cc1cccc(CNCc2ccsc2)c1 | -8.06%
CCC(=O)N(C)Cc1cccc(OC(C)C)c1 | -5.79%
CSc1cccc(NC(=O)CCC(=O)Nc2nccs2)c1 | 14.4%
Cn1cc(NC(=O)c2cccc(-n3cnnn3)c2)cn1 | -13.6%
N#CC1(C(=O)N2CCOC(c3ccc(Cl)cc3)C2)CCCC1 (stereo not given) | -15.9%
Cc1cc(C)c(S(N)(=O)=O)cc1C(=O)NCCN1CCCCC1 | -16.1%

SMILES | cytotoxicity at 70.5 h
CN(Cc1ccc(F)cc1)C(=O)c1ccoc1CN1CCNC(=O)C1 | -18.2%
COc1ccccc1CCNC(=O)NCC(=O)Nc1cccnc1 | -0.968%
CCC(=O)Nc1nnc2n(Cc3cccc(OC)c3)[nH]c(C)c1-2 | -0.289%
CC(C)(C)CNC(=O)c1ccc(C(=O)O)cn1 | 23.3%
COc1ccccc1CC(C)(C)C(=O)NCC(=O)Nc1cccnc1 | 3.9%
CSCC(=O)NC1(c2cccc(Cl)c2)CC1 | -3.77%
NC(=O)CSCC(=O)NC1(c2cccc(Cl)c2)CC1 | 2.26%
CC(C)c1nc(C2CCCN2C(=O)c2cc(Cl)c[nH]2)no1 (stereo not given) | -2.12%
N#Cc1ccc(S(=O)(=O)NC(=O)C2CC(c3ccccc3)=NO2)cc1 (stereo not given) | -12.1%
O=C(Cc1ccc(F)cc1F)NCC(=O)Nc1ccccn1 | -5.81%
CC(C)n1nnnc1-c1ccc(NC(=O)CCC(F)(F)F)cc1F | -18%
CSC(C)C(=O)Nc1ccnn1-c1ccccc1C (stereo not given) | 31.2%
O=C(NCC(O)c1cccc(F)c1)c1sccc1OC(F)F (stereo not given) | -3.42%
CCc1nc(Cn2cncc(Br)c2=O)no1 | -8.84%
CN1CCC(N(Cc2ccco2)S(=O)(=O)c2ccc(Br)cc2Cl)CC1 | 1.77%
CN1CCC(N(Cc2ccco2)S(=O)(=O)c2cc(Br)ccc2Br)CC1 | 1.03%
CN1CCC(N(Cc2ccco2)S(=O)(=O)c2ccc(Cl)cc2)CC1 | -3.29%
Cc1ccc(OCC(=O)NS(=O)(=O)Cc2ccccc2)cc1 | -5.22%
Cc1nnc(NCCc2coc(-c3ccc(F)cc3)n2)c(C#N)c1C | -13.9%
O=C(Nc1ccc(-c2ccccc2)cn1)C1CCN(C(=O)C2CC2)CC1 | -1.82%
Cc1ccc(-c2noc(CNCC3CN(C)CCO3)n2)cc1F (stereo not given) | -5.24%
Cc1ccc2oc(N3CCN(CC(=O)NC(C)C)CC3)nc2c1 | 10.6%

SMILES | cytotoxicity at 70.5 h
Cc1cc(C)n(CC2CCCN2Cc2cccc(C#N)c2)n1 (stereo not given) | -3.89%
Cc1ccc(CN(C)C(=O)NCC(C)(C)NS(C)(=O)=O)s1 | -3.9%
CC(=O)c1cccc(OCC(=O)N(CC(C)C)C2CCN(C)CC2)c1 | 10.2%
CC(C)CC(C)(CNC(=O)c1cnccn1)NC(=O)c1cnccn1 (stereo not given) | -0.237%
O[C@@H]1CN(Cc2cc(Cl)cc3cccnc23)C[C@@H]1O | -4.72%
Cc1ncc(S(=O)(=O)Nc2ccnn2C(C)C)[nH]1 | 3.96%
COC(C)c1cccc(NCc2ccsc2)c1 (stereo not given) | -2.9%
CC(C)(CNC(=O)C1(c2cccc(Br)c2)CCOCC1)C(=O)O | -0.158%
O=C(NCC(O)c1cccs1)c1sccc1OC(F)F (stereo not given) | -3.63%
CCc1ncc2c(n1)CN(CC1CCCCO1)CC2 (stereo not given) | 8.28%
Cc1cc(C2CCCN(C(=O)COc3ccc(F)cc3F)C2)n[nH]1 (stereo not given) | -4.95%
CCOC(=O)N(C)C1CCN(Cc2ccsc2)CC1 | 19.3%
CN(CCOc1ccc(C#N)cc1)CC1CC1 | 3.53%
O=C(CCn1ccnn1)N1CCCC(n2cncn2)C1 (stereo not given) | -6.6%
CC1CN(C)CCN1C(=O)Cc1cc(Cl)c2c(c1)OCCO2 (stereo not given) | -6.51%
COc1c(C2CCCN2CC(=O)Nc2nccs2)c(C)nn1C (stereo not given) | -2.85%
COc1cccc(CCC(=O)Nc2cnc3c(c2)c(C)nn3C)c1OC | -14.1%
Cc1noc(CNc2cc3c(cc2Cl)NC(=O)CO3)n1 | -10.2%
COC1CCN(c2ccc(F)cc2CN(C)S(C)(=O)=O)CC1 | -8.29%
COC1CCN(c2ccc(F)cc2CN(C)CC(N)=O)CC1 | -4.87%
Cc1cc2n(n1)CC(CNCc1cc(C)on1)CN2 (stereo not given) | -9.53%
CCOc1ccc2cc(C(=O)NCCNc3ccc(C)nn3)[nH]c2c1 | -8.09%

SMILES | cytotoxicity at 70.5 h
Cc1cc(C)n(CC2CCN(CC(O)COc3ccccc3)CC2)n1 (stereo not given) | -6.54%
CCc1nnc2n1CCN(C(=O)C(C)Oc1ccc(C#N)cc1)C2 (stereo not given) | -10.1%
CC(C)(C)c1nc(CNc2cc3c(cc2Cl)NC(=O)CO3)no1 | -7.93%
CCN(CC)C(=O)CS(=O)(=O)c1cc(OC)c(OC)cc1C | -9.5%
COCCNC(=O)N1CCN(c2cc(F)ccc2F)CC1 | -10.1%
Cc1nc(NC(=O)C(C)N(C)Cc2ccc3c(c2)OCO3)sc1C (stereo not given) | -5.16%
CCS(=O)(=O)N1Cc2ccccc2CC1C(=O)OCc1cc(C)no1 (stereo not given) | -7.63%
CCC(C)C(=O)N(C)Cc1cc(F)ccc1N1CCC(OC)CC1 (stereo not given) | -10.5%
CC1COCCN1C(=O)Cc1cc(Cl)c2c(c1)OCCO2 (stereo not given) | -12.3%
Cc1cc(C2CCCN(Cc3nc(Cc4ccccc4)no3)C2)n[nH]1 (stereo not given) | -10.9%
O=C(CCn1ccnc1)N1CCCC(n2cncn2)C1 (stereo not given) | 10.1%
O=C(CCCn1cccn1)N1CCCC(n2cncn2)C1 (stereo not given) | 1.52%
COc1ccc(OC)c(CNCc2c(C)nc3sc(C)cn23)c1 | 16.5%
O=C(c1ccc(CN2CC(n3cccn3)C2)cc1)N1CCCC1 | -0.354%
CNC(=O)c1ccc(CN(C)c2ccc(C(F)(F)F)cn2)cc1 | 6.65%
Cc1ccccc1C1(C(=O)N2CCOC(C)C2)CCOCC1 (stereo not given) | -5.13%
COCCCNC(=O)c1c[nH]c2ccc(OC)cc12 | -1.45%
COC(=O)CCNC(=O)c1c[nH]cc1-c1cccc(OC)c1 | 3.36%
COC(=O)C(C)CN(Cc1ccccc1)C(=O)CN1CCCNC1=O (stereo not given) | -0.248%
